Laboratory results as given in patent US8399417B2, “Food” (Ajinomoto Co., Inc., priority 2007, dated 2013).
Starred links: 1 amine or outer side, 2 acyl side, 3 side chain; linkers in the order of their positions; H or OH if unused. Non-standard residues stand in square brackets, D forms with d. No end group written: not given here. γGlu = O=C(O)[C@H](CCC(=O)[*:2])N[*:1]; Abu = CC[C@H](N)C(=O)O

Columns and labels:
[1] = molecular target: T1, human calcium receptor (Homo sapiens, UniProt P41180); assay: Calcium receptor-activating effect: Ca ion concentration-dependent Cl ionic current in Xenopus laevis oocyte expression system; format: cell-based; conditions: for Activity (lowest concentration at which current was detected): peptide added at 1,000 to 0.1 μM to potential-clamped oocytes, Table 1
T1 construct: expressed in transfected cells; host or cells: Xenopus laevis oocytes injected with cRNA; the gene was PCR-cloned from human kidney cDNA (Clontech) into pBR322
T1 sequence (P41180 20-1078): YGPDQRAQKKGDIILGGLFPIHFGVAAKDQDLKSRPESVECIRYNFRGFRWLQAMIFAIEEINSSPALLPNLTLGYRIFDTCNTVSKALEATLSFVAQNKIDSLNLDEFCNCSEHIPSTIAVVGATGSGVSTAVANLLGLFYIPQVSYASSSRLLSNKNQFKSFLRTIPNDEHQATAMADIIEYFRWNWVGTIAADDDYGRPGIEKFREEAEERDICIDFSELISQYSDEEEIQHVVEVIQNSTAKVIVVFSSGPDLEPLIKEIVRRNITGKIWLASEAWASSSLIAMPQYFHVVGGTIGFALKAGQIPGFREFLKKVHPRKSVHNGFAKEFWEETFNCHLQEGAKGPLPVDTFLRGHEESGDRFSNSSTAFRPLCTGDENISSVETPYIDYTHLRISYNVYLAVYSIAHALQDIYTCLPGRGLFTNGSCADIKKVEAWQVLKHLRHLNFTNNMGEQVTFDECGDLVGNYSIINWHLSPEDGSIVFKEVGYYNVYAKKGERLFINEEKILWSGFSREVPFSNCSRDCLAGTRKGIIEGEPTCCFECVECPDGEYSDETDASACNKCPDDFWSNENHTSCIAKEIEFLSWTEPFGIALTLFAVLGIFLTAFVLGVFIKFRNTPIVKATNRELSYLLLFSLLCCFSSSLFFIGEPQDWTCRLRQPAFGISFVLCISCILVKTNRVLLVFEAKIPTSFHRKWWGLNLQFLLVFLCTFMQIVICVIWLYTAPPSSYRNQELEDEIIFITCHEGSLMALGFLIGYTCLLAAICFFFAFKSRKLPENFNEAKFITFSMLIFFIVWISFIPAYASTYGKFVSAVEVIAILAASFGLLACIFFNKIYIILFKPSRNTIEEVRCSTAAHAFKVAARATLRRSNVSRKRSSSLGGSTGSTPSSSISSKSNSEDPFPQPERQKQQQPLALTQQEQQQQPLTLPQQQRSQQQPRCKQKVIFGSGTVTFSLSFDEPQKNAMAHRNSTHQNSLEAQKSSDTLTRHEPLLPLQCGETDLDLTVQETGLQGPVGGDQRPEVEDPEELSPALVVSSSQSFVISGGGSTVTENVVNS
Method: For evaluation of the calcium receptor-activating effect, a Ca ion concentration-dependent Cl ionic current measuring method using a Xenopus laevis oocyte expression system was used. If each activator is added to Xenopus laevis oocytes expressing the calcium receptor, intracellular Ca ions increase. Then, the Ca ion concentration-dependent Cl channel opens, and the intracellular current value changes as an ionic current. By measuring the change in the intracellular current value, whether the calcium receptor-activating effect is present or not can be determined.
Specifically, the abdomen of Xenopus laevis was opened, and an egg batch was taken out and then treated with a 1% collagenase solution at 20° C. for 2 hours to obtain individual oocytes. Into the oocytes, 50 nl of 1 μg/μl receptor cRNA or 50 nl of sterilized water per oocyte were injected by using a micro glass capillary, and the oocytes were cultured at 18° C. for 2 to 3 days. For the culture, a solution obtained by adding 2 mM pyruvic acid, 10 U/ml penicillin, and 10 μg/ml streptomycin to the solution in Reference Example 2 was used. After the culture, a test solution was added to the oocytes injected with cRNA or sterilized water. Electrophysiological measurement was performed by using an amplifier Geneclamp 500 (manufactured by Axon) and recording software AxoScope 9.0 (manufactured by Axon). The oocytes were membrane potential-clamped at −70 mV by the double electrode potential clamp method, and the intracellular current via the Ca ion concentration-dependent Cl ion was measured. The maximum value of the intracellular current was defined as the response current value.
The calcium receptor-activating effect of L-amino acids was evaluated by using the method described in Reference Example 6. That is, oocytes injected with cRNA of the calcium receptor or sterilized water were prepared, and membrane potential-clamped at −70 mV by the double electrode potential clamp method. To the potential-clamped oocytes, alanine (10 mM), arginine (10 mM), asparagine (10 mM), aspartic acid (10 mM), cysteine (10 mM), glutamine (10 mM), glutamic acid (10 mM), glycine (10 mM), histidine (10 mM), isoleucine (10 mM), leucine (10 mM), lysine (10 mM), methionine (10 mM), phenylalanine (10 mM), proline (10 mM), serine (10 mM), threonine (10 mM), tryptophan (10 mM), tyrosine (10 mM), valine (10 mM), ornithine (10 mM), taurine (10 mM), or hydroxyproline (10 mM) was added, and Ca ion concentration-dependent Cl response current was measured. […] 25, 2000, 97(9): 4814-9.
The calcium receptor-activating effect of D-cysteine was evaluated by using the method described in Reference Example 6. That is, oocytes injected with cRNA of the calcium receptor or sterilized water were prepared, and membrane potential-clamped at −70 mV by the double electrode potential clamp method. To the potential-clamped oocytes, D-cysteine (10 mM), L-cysteine (10 mM), D-tryptophan (10 mM), or L-tryptophan (10 mM) was added, and Ca ion concentration-dependent Cl response current was measured.
The calcium receptor-activating effect of a peptide was evaluated by using the method described in Reference Example 6. That is, oocytes injected with cRNA of the calcium receptor or sterilized water were prepared, and membrane potential-clamped at −70 mV by the double electrode potential clamp method.
The calcium receptor-activating effects of peptides were evaluated in the same manner as that of Reference Example 10. Each of the peptides shown in Table 1 was added to potential-clamped oocytes at 1,000 μM, 300 μM, 100 μM, 30 μM, 10 μM, 3 μM, 1 μM, 0.3 μM, and 0.1 μM, and Ca ion concentration-dependent Cl response current was measured.

[2] = Kokumi-imparting activity intensity, quantitative sensory evaluation test; format: in vivo, human; design: key: *: Unmeasurable: kokumi-imparting activity is too strong to measure by sensory evaluation
Method: The quantitative sensory evaluation test was performed as follows. […] It should be noted that a sample, which became acidic after the sample had been dissolved, was adjusted with NaOH to pH 6.8 to 7.2 before use. […] The test was performed with n=3 based on the following sensory evaluation scores: control (0 point) and glutathione addition (3 points).
The quantitative sensory evaluation test was performed as follows. […] It should be noted that a sample, which became acidic after the sample had been dissolved, was adjusted with NaOH to pH 6.8 to 7.2 before use. The test was performed with n=5 based on the following sensory evaluation scores: control (0 point) and glutathione addition (3 points).
The quantitative sensory evaluation test was performed as follows. […] It should be noted that a sample, which became acidic after the sample had been dissolved, was adjusted with NaOH to pH 6.8 to 7.2 before use. The test was performed with n=12 based on the following sensory evaluation scores: control (0 point) and glutathione addition (3 points).

[3] = 0.1 g/dl, n=5, control 0, glutathione 3 points, Table 4
[4] = 0.1 g/dl, n=12, control 0, glutathione 3 points, Table 5
[5] = 0.01 g/dl, n=5, control 0, glutathione 3 points, Table 4
[6] = 0.01 g/dl, n=12, control 0, glutathione 3 points, Table 5

Compound | calcium receptor-activating effect (Cl response current) ([1]; peptide 50 μM, FIG. 4) | Taste profile ([2]; 0.1 g/dl, n=3, Table 3) | Kokumi intensity, Aftertaste ([2]; 0.1 g/dl, n=3, control 0, glutathione 3 points, Table 3) | Kokumi intensity, Aftertaste [2, 3] | Kokumi intensity, Initial and middle taste [2, 3] | Kokumi intensity, Aftertaste [2, 4] | Kokumi intensity, Initial and middle taste [2, 4] | Kokumi intensity, Initial and middle taste ([2]; 0.1 g/dl, sodium glutamate, inosine monophosphate, sodium chloride solution, n=3, control 0, glutathione 3 points, Table 3) | Activity (lowest concentration at which current was detected) [1] | Kokumi intensity, Aftertaste [2, 5] | Kokumi intensity, Initial and middle taste [2, 5] | Kokumi intensity, Aftertaste [2, 6] | Kokumi intensity, Initial and middle taste [2, 6] | Kokumi intensity, Aftertaste ([2]; 0.1 g/dl, n=5, Table 4) | Kokumi intensity, Initial and middle taste ([2]; 0.1 g/dl, n=5, Table 4) | Taste profile ([2]; 0.1 g/dl, n=5, Table 4)
N[C@@H](CCC(=O)N[C@@H](CS)C(=O)NCC(=O)O)C(=O)O [γ-Glu-Cys-Gly, reference compound] | definite calcium receptor-activating effect | Thickness, growth, and continuity | 3.0 points | 3.0 points | 3.0 points | 3.0 points | 3.0 points | 3.0 points |  |  |  |  |  |  |  | 
[γGlu]-Val-Gly |  |  |  |  |  |  |  |  | 0.1 µM | 3.0 points | 3.0 points | 3.0 points | 3.0 points | * | * | *
[γGlu]-[Abu]-Gly |  |  |  |  |  |  |  |  | 3 µM |  |  | 2.0 points | 3.0 points |  |  | 
